The values that follow come from the supplement of paper PMC11061612.

In experiment [1] the test system is NALM-6 (B-Lymphoblastic Leukemia). Kind of experiment: combination Emax (second highest fraction inhibited in the dose matrix, 72 h); higher = more inhibition; extreme values may be limits of the assay. The procedure, abridged: (§1)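 Bliss excess equals the observed combination effect minus the expected value EA + EB − EA·EB, where EA and EB are the effects of each agent alone. Combination Emax is the second-highest inhibition within the matrix. Inhibition was scaled from CellTiter-Glo 2.0 luminescence, with 0 set by vehicle wells and 1 by blank wells, after 72 hours of two-drug dosing of cells plated in 1536-well plates.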

The test system of experiment [2] is LS-513 (Colorectal Carcinoma). Described as above. The method, boiled down: as §1
Experiment [3] relates to DSH1 (Bladder Carcinoma). The description is as above. The method, boiled down:
as §1

Experiment [4] has as its system TE-5 (Esophageal Squamous Cell Carcinoma). The description is as above. The procedure, abridged: as §1
Experiment [5] relates to COR-L95 (Small Cell Lung Carcinoma). Described as above. The method, boiled down: as §1
Experiment [6] concerns HT-29 (Colorectal Carcinoma). The experiment is described as above. The method, boiled down: as §1
The test system of experiment [7] is SW1990 (Pancreatic Carcinoma). The experiment is described as above. The method, boiled down: as §1
For experiment [8], the system named is MFH-ino (Other Solid Carcinomas). Kind of experiment: Bliss excess, mean over the matrix (fraction); higher = more synergy. The procedure, abridged: as §1
Experiment [9] relates to NALM-6 (B-Lymphoblastic Leukemia). The description is as above. The method, boiled down: as §1
For experiment [10], the system named is MDA-MB-231 (Breast Carcinoma). The experiment is described as above. The method, boiled down:
as §1

The test system of experiment [11] is ES7 (Ewing's Sarcoma). Described as above. The procedure, abridged: as §1
Experiment [12] concerns KATOIII (Gastric Carcinoma). Described as above. The procedure, abridged: as §1
For experiment [13], the system named is G-292-Clone-A141B1 (Osteosarcoma). The experiment is described as above. The procedure, abridged: as §1
The subject of experiment [14] is OCI-AML2 (Acute Myeloid Leukemia). The description is as above. The procedure, abridged:
as §1

Experiment [15] has as its system U-266 (Plasma Cell Myeloma). The experiment is described as above. The procedure, abridged: as §1
For experiment [16], the system named is NCI-H2595 (Mesothelioma). The experiment is described as above. The method, boiled down:
as §1

Experiment [17] relates to SK-N-FI (Neuroblastoma). Described as above. The procedure, abridged:
as §1

Experiment [18] relates to IHH-4 (Thyroid Gland Carcinoma). Described as above. The method, boiled down: as §1
Experiment [19] has as its system KARPAS-1106P (B-Cell Non-Hodgkin's Lymphoma). Described as above. The procedure, abridged: as §1
Experiment [20] has as its system SW1990 (Pancreatic Carcinoma). Described as above. The method, boiled down: as §1

Each structure is given as a SMILES string.

In the case of `C=CCn1c(=O)c2cnc(Nc3ccc(N4CCN(C)CC4)cc3)nc2n1-c1cccc(C(C)(C)O)n1` [AZD1775] + CCc1c2c(nc3ccc(O)cc13)-c1cc3c(c(=O)n1C2)COC(=O)[C@]3(O)CC [SN-38] (first compound max 1 µM, partner max 0.3 µM), the “combination Emax” value in experiment [1] worked out at 1; in [2] it was 0.771; in experiment [3] it was 0.999; in experiment [4] it was 0.875; in experiment [5] it was 0.542; in [6], 0.929. In addition, the “combination Emax” value in experiment [7] came out at 0.542. Moreover, the Bliss excess in experiment [8] was -0.0756; in experiment [9] it was -0.0563; in experiment [10], 0.0031; in [11], -0.0228; in [12], -0.0948; in experiment [13], 0.023. In addition, the Bliss excess in experiment [14] is -0.0278; in [15] it was -0.0555; in experiment [16] it was -0.0096; in experiment [17], -0.0038; in [18], -0.0485; in experiment [19], -0.0946. Further, the Bliss excess in [20] is -0.0908.
